# Publication PMC11763059, “GENI as an AMPK Activator Binds α and γ Subunits and Improves the Memory Dysfunction of Alzheimer’s Disease Mouse Models via Autophagy and Neuroprotection” (Antioxidants, 2025)
# Legend:
# [1] = test system: T1, AMPK α subunit ASP166 mutated into ALA166; assay: SPR analysis, AMPK α subunit D166 replaced with A166; type: binding
# T1 construct: His (N); made in house
# Experimental: (§1) Mammalian AMPK subunits (His-α1, β1, and γ1) were cloned into a pET-3d vector, and protein expression and purification were similar to the literature.
# (§2) SPR analysis was performed with a Biacore T200 instrument (GE Healthcare). Firstly, the purred His-tagged AMPK containing α1β1γ1 protein was captured onto an activated carboxymethylated 5 (CM5) chip using amine coupling to levels ranging from 4000 RU to 6000 RU. Secondly, GENI was dissolved in PBS-P buffer solution (0.05% (v/v) Tween 20 and PBS), and the concentration of GENI was 64 μM. Thirdly, the solution of GENI was diluted to 32 μM, 16 μM, 8 μM, 4 μM, 2 μM, 1 μM and 0.5 μM with PBS-P buffer solution. The sample was filtered by pumping through a […] membrane. A gradient concentration of GENI was injected at a flow rate of 30 μL/min in a running buffer (0.05% (v/v) Tween 20 and PBS). The data were analyzed with Biacore evaluation software (T200 version 2.0) and fitted to the 1:1 Langmuir binding model, and the kinetic parameters were derived.
# (§3) The non-covalent interaction between drugs and proteins is an important way to exert drug efficacy, and its mode of action and binding affinity usually determine the utilization and biological activity of drugs. AMPK is a heterotrimer complex consisting of an α subunit containing the kinase domain and two regulatory subunits (β- and γ-). […]
# PC12 cells = assay: Total SOD enzymatic activity assay in PC12 cells; type: cell-based; conditions: compared with the H2O2-treated group
# Experimental: To determine ROS levels in PC12 cells, we seeded 5 × 10^4 PC12 cells in each well of a 24-well plate. Cells were treated with RES (10 μM) or GENI (1, 3, and 10 μM) for 24 h, followed by 0.8 mM H2O2 for 1 h. DCFH-DA (2,7-dichlorodihydrofluorescein diacetate, final concentration, 10 μM) was then added to each well and incubated for 30 min. Cells were washed with PBS to remove extracellular DCFH-DA, and intercellular ROS was detected by using a SpectraMax M3 multimode microplate reader (Molecular Devices Corporation, San Jose, CA, USA) at an excitation wavelength of 488 nm and an emission wavelength of 525 nm. Meanwhile, DCF in PC12 cells was observed using a fluorescence microscope (HCS, Thermo Fisher, Science, Waltham, MA, USA). To detect malondialdehyde (MDA) content and total SOD enzymatic activities in PC12 cells, we seeded 2 × 10^6 PC12 cells in 60 mm dishes containing 5 mL of DMEM and cultured the cells for 24 h. PC12 cells were treated with RES (10 μM) or GENI (3 or 10 μM) for 24 h and then treated with 0.8 mM H2O2 for 1 h to determine the MDA content and total superoxide dismutase (SOD) activities. Cells were lysed and centrifuged. […] MDA quantification and total SOD activities were determined using MDA and SOD enzyme activity assay kits (Nanjing Jiancheng Bioengineering Institute, Nanjing, China) following the manufacturer’s instructions.
# [2] = biological target: T2, AMPK-s5 (γ subunit- D156A) (Rattus norvegicus, UniProt P54645+P80385, D156A); assay: SPR analysis, AMPK mutant s5; type: binding
# T2 construct: His (N); made in house
# Experimental: as §1, §2, §3
# [3] = biological target: T3, AMPK-s1 (α subunit- D148A) (Rattus norvegicus, UniProt P54645+P80385, D159A); assay: SPR analysis, AMPK mutant s1; type: binding
# T3 construct: His (N); made in house
# Experimental: as §1, §2, §3
# [4] = biological target: T4, AMPK-s6 (γ subunit- K309A) (Rattus norvegicus, UniProt P54645+P80385, K309A); assay: SPR analysis, AMPK mutant s6; type: binding
# T4 construct: His (N); made in house
# Experimental: as §1, §2
# The non-covalent interaction between drugs and proteins is an important way to exert drug efficacy, and its mode of action and binding affinity usually determine the utilization and biological activity of drugs. AMPK is a heterotrimer complex consisting of an α subunit containing the kinase domain and two regulatory subunits (β- and γ-). Different action sites have varied or even opposite pharmacological effects. The molecular mechanism of interaction between the protein and molecule should be investigated thoroughly. After co-incubation of GENI and AMPK, LC-MS/MS measurements were performed to predict the binding sites. As shown in Extended Data Figure S2, ASP148, ASP157 and ASP166 of the AMPK α subunits and LYS148, ASP156, LYS309, and ASP316 of the AMPK γ subunit were possible to the binding sites of GENI. […] Thus, all of these seven sites affected the binding of GENI and AMPK to varying degrees, and they were located in the C lobe kinase domain of the AMPK α subunit, and the CBS2 and CBS4 domain of the AMPK γ subunit, respectively.
# [5] = biological target: T5, AMPK-s4 (γ subunit- K148A) (Rattus norvegicus, UniProt P54645+P80385, K148A); assay: SPR analysis, AMPK mutant s4; type: binding
# T5 construct: His (N); made in house
# Experimental: as §1, §2, §3
# [6] = SPR, association rate, read-out: Ka
# T4 sequence (P54645 13-559 limits assumed): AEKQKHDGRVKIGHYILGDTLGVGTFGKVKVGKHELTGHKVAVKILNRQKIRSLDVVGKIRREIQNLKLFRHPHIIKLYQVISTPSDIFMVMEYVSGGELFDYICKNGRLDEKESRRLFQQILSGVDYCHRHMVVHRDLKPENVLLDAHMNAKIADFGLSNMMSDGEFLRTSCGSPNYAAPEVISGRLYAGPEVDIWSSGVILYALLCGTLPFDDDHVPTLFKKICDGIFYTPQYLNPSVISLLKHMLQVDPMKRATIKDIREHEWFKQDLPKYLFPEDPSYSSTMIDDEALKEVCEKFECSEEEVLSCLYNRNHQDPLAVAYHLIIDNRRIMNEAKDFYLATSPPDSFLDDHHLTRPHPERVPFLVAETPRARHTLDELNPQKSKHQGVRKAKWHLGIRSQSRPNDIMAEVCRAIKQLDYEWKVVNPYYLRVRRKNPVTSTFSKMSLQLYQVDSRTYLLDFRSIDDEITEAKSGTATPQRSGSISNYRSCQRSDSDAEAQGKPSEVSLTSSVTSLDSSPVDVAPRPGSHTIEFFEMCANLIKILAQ
# T4 sequence (P80386 whole entry partner): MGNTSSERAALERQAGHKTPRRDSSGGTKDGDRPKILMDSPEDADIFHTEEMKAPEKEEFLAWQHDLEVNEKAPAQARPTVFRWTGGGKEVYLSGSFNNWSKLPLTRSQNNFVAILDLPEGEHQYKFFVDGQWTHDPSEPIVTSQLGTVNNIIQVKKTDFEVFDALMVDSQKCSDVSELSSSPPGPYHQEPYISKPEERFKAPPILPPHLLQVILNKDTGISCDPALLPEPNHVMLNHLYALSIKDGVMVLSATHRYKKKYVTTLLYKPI
# T4 sequence (P80385 whole entry K309A): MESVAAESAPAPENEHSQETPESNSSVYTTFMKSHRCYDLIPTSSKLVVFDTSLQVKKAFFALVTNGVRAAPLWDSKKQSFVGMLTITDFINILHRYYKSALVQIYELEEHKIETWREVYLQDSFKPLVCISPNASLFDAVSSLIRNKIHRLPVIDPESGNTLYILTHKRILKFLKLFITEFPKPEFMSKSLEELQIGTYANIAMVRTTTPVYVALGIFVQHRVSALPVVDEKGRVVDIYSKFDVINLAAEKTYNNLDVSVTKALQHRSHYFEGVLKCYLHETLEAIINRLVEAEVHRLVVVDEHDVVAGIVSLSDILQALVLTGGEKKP
# T3 sequence (P54645 13-559 D159A limits assumed): as the sequence (P54645 13-559 limits assumed) above, with D147A counted along it
# T3 sequence (P80386 whole entry partner): as the sequence (P80386 whole entry partner) above
# T3 sequence (P80385 whole entry): as the sequence (P80385 whole entry K309A) above, with A309K counted along it
# T5 sequence (P54645 13-559 limits assumed): as the sequence (P54645 13-559 limits assumed) above
# T5 sequence (P80386 whole entry partner): as the sequence (P80386 whole entry partner) above
# T5 sequence (P80385 whole entry K148A): as the sequence (P80385 whole entry K309A) above, with K148A, A309K counted along it
# T2 sequence (P54645 13-559 limits assumed): as the sequence (P54645 13-559 limits assumed) above
# T2 sequence (P80386 whole entry partner): as the sequence (P80386 whole entry partner) above
# T2 sequence (P80385 whole entry D156A): as the sequence (P80385 whole entry K309A) above, with D156A, A309K counted along it
smiles,measurement,setting,value
"CC(C)CCOC(=O)C1=CO[C@@H](O[C@@H]2O[C@H](CO)[C@@H](O)[C@H](O)[C@H]2O)C2C(CO)=CCC12 (some centres unmarked) [GENI, Geniposidic 4-isoamyl ester]",dose-dependent response in SPR,[1],No significant dose-dependent response
same,total SOD activity,PC12 cells,increased
same,kon,[2]; [6],2140 M⁻¹ s⁻¹
same,dose-dependent relationship in SPR,[2]; point mutation of D156,dose-dependent relationship was lost
same,dose-dependent response in SPR,[3]; D148 replaced with A148,No significant dose-dependent response
same,kon,[3]; [6],9360 M⁻¹ s⁻¹
same,Kd,[4]; SPR,6.21 µM
same,kon,[4]; [6],806 M⁻¹ s⁻¹
same,response (RU) in SPR,"[4]; point mutation of K309, versus wild-type",significantly reduced
same,kon,[5]; [6],4130 M⁻¹ s⁻¹
same,dose-dependent relationship in SPR,[5]; point mutation of K148,dose-dependent relationship was lost
